Measured values published in paper PMC7316778 (Nature Communications, 2020).
Several values for one entry are separate records, joined by “and”; a condition that tells them apart may be missing. Equal entries are not always repeated. Where two headings read alike, the source gives them in different places.

Legend:
Assay in all cases: SelectScreen kinase assay
[1] = target: DYRK4 (Homo sapiens, UniProt Q9NR20); assay type: biochemical
[2] = target: AKT3 (PKB gamma) (Homo sapiens, UniProt Q9Y243); conditions: for Inhibition at 1 µM (%): AKT3 (PKB gamma), ZLYTE, ATP Km app
Experimental: (§1) Selectivity profiling assays were performed by the Invitrogen SelectScreen™ Services. […] The concentration of ATP was selected to be equal to the KM, unless indicated otherwise.

[3] = target: DAPK1 (Homo sapiens, UniProt P53355)
Experimental: as §1

[4] = target: EIF2AK2 (PKR) (Homo sapiens, UniProt P19525)
Experimental: as §1

[5] = target: FER (Homo sapiens, UniProt P16591)
Experimental: as §1

[6] = target: MINK1 (Homo sapiens, UniProt Q8N4C8)
Experimental: as §1

[7] = target: MST4 (Homo sapiens, UniProt Q9P289)
Experimental: as §1

[8] = target: NTRK3 (TRKC) (Homo sapiens, UniProt Q16288)
Experimental: as §1

[9] = target: PIM2 (Homo sapiens, UniProt Q9P1W9)
Experimental: as §1

[10] = target: PTK2 (FAK) (Homo sapiens, UniProt Q05397)
Experimental: as §1

[11] = target: SIK1 (Homo sapiens, UniProt P57059)
Experimental: as §1

[12] = target: STK3 (MST2) (Homo sapiens, UniProt Q13188)
Experimental: as §1

[13] = target: T1, TAOK3 (JIK) (Homo sapiens, UniProt Q9H2K8); conditions: for Inhibition at 1 µM (%): LanthaScreen Binding
T1 sequence (Q9H2K8 1-898): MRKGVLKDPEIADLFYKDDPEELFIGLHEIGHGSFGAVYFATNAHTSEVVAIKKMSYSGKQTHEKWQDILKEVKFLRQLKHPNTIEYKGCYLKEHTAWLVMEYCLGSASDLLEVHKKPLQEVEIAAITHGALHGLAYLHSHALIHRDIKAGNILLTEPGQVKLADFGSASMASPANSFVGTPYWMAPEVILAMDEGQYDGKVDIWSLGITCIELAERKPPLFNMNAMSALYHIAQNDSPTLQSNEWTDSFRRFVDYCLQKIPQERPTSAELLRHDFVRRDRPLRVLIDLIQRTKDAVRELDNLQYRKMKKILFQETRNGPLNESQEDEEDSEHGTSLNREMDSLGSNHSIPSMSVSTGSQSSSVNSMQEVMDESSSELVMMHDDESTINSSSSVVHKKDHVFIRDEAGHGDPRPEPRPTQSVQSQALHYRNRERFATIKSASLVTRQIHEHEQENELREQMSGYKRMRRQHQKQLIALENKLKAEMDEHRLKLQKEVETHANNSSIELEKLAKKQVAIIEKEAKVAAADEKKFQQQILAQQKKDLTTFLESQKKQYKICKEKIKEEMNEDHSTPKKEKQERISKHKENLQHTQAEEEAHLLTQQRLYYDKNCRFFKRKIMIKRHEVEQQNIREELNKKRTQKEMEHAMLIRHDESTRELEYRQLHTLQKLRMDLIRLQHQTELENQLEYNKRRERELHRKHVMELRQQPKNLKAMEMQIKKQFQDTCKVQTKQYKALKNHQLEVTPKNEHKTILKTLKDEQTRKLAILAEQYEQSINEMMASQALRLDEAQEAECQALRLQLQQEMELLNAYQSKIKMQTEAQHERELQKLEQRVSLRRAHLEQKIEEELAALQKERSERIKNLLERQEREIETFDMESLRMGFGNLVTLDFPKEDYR
Experimental: as §1

[14] = target: T2, TGFBR1 (ALK5) (Homo sapiens, UniProt P36897); conditions: for Inhibition at 1 µM (%): LanthaScreen Binding
T2 sequence (P36897 34-503): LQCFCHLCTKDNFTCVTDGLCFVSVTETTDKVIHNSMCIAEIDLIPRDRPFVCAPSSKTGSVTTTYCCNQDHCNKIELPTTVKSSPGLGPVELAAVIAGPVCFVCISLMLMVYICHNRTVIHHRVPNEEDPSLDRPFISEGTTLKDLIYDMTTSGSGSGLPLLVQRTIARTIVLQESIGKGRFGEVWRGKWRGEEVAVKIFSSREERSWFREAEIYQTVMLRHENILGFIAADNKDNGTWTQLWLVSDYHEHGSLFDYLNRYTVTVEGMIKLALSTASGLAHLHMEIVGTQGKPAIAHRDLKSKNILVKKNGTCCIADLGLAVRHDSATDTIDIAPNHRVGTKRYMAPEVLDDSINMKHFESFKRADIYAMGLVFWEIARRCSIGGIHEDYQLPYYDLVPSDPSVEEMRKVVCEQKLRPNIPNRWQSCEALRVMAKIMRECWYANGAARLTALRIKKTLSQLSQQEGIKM
Experimental: as §1

[15] = target: WNK2 (Homo sapiens, UniProt Q9Y3S1)
Experimental: as §1

[16] = 1 h, 1 μM WEL028, 1 h preincubation
[17] = 1 µM, LanthaScreen Binding, listed as WEL028, 1 µM
[18] = read-out: Inhibition at 1 µM (%), 1 µM, LanthaScreen Binding

Sequence of AKT3 (PKB gamma) (Q9Y243 whole entry): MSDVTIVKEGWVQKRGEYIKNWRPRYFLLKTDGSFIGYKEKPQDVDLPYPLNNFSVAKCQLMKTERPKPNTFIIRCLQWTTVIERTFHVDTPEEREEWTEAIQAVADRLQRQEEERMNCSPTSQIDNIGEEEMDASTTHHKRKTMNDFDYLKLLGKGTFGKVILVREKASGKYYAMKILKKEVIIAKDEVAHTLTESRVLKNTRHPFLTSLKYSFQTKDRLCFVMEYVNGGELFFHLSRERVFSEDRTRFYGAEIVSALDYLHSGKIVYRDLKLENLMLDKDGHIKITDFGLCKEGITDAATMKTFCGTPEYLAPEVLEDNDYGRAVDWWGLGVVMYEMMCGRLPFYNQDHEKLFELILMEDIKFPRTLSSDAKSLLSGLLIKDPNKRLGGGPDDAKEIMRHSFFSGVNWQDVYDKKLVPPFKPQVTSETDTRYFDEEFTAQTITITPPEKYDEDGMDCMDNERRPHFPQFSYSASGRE
Sequence of PTK2 (FAK) (Q05397 whole entry, species assumed): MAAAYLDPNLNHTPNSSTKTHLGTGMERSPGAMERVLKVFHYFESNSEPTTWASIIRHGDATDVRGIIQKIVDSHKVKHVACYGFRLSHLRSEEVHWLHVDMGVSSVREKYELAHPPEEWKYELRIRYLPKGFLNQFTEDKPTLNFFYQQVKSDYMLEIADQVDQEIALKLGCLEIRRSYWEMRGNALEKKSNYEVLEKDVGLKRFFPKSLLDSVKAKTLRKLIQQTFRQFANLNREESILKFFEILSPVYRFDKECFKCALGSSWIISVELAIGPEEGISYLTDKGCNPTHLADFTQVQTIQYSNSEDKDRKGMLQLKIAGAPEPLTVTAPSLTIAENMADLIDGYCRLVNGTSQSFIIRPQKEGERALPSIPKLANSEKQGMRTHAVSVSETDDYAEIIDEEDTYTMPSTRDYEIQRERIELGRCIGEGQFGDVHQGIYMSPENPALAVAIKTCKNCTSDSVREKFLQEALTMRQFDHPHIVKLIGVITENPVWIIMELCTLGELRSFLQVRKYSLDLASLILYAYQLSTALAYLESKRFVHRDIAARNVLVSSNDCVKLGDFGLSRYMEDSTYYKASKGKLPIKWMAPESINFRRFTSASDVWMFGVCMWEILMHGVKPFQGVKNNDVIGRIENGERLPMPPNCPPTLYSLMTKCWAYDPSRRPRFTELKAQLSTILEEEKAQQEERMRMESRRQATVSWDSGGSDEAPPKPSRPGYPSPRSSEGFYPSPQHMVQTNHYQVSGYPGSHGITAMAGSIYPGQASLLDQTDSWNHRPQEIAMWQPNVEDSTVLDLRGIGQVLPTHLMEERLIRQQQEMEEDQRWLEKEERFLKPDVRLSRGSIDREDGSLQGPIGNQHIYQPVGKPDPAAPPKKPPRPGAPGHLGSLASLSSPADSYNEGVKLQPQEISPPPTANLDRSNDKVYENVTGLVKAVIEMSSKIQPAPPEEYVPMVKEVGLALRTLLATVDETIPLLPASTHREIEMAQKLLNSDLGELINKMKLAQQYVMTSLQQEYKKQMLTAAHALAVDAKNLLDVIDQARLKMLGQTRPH
Sequence of DAPK1 (P53355 whole entry): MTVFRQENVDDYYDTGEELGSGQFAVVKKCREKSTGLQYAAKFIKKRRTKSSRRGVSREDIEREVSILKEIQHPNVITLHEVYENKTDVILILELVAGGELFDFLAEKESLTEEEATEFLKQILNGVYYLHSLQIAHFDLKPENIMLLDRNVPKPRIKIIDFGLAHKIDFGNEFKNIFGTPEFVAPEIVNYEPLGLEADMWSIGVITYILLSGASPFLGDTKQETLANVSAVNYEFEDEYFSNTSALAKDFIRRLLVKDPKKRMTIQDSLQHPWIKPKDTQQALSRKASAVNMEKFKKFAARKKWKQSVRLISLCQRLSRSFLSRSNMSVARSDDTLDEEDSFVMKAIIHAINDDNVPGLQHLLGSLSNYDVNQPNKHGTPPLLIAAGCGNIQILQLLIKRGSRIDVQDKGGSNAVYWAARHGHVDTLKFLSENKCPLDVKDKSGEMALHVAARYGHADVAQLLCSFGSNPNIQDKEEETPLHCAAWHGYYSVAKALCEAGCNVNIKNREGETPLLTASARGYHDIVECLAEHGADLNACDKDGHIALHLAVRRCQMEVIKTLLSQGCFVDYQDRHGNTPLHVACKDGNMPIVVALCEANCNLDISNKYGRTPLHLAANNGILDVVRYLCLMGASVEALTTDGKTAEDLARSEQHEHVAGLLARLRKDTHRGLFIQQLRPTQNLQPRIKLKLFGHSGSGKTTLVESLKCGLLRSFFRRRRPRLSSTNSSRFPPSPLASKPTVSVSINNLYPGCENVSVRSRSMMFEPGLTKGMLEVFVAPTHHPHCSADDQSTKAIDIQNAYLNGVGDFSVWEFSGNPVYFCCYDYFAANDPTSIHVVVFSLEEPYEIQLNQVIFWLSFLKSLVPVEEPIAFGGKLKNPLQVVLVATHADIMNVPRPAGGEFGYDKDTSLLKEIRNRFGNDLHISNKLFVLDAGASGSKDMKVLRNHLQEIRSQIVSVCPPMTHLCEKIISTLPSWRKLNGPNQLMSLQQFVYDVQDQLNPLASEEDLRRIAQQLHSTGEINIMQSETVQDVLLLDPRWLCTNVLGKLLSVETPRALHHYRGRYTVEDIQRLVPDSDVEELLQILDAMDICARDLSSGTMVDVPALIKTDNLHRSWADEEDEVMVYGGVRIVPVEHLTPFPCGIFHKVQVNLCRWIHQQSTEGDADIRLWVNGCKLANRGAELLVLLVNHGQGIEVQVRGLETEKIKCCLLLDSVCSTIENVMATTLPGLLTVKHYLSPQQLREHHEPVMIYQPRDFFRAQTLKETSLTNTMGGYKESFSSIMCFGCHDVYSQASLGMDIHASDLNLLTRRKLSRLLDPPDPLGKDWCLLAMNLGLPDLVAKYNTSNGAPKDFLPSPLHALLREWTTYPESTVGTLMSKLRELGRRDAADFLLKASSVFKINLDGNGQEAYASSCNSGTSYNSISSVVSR
Sequence of SIK1 (P57059 whole entry): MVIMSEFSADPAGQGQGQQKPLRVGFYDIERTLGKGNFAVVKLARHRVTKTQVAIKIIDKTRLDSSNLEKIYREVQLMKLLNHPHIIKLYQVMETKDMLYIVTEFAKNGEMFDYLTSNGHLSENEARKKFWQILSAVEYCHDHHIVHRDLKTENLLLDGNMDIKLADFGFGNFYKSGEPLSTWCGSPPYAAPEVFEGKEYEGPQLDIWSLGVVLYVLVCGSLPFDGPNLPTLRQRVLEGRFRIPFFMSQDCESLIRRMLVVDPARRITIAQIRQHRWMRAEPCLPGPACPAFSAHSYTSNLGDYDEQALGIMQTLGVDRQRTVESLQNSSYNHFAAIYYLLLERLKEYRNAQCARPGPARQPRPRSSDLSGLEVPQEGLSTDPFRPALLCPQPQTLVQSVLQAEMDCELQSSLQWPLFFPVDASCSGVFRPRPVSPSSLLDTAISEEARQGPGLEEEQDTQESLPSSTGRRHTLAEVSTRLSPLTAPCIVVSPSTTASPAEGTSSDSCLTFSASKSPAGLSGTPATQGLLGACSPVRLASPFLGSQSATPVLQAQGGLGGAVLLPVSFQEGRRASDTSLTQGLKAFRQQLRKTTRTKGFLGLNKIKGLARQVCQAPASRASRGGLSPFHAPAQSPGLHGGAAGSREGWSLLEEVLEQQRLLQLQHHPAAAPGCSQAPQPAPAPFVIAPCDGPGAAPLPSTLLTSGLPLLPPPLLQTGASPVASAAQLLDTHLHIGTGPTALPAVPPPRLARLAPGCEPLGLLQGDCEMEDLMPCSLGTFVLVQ
Sequence of DYRK4 (Q9NR20 whole entry): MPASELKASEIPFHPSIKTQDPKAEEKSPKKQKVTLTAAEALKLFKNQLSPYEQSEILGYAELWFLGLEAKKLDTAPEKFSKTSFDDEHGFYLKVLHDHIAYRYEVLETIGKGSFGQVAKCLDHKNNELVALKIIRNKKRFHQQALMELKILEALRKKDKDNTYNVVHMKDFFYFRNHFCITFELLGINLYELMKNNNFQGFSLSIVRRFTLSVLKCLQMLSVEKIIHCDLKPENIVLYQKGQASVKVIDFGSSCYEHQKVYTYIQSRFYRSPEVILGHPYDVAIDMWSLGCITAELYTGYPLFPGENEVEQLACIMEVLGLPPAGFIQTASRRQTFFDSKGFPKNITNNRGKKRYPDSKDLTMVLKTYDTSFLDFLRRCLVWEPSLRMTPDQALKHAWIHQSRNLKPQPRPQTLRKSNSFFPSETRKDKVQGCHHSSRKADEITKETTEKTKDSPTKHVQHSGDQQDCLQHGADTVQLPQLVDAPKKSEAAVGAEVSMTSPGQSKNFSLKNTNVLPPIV
Sequence of MST4 (Q9P289 whole entry): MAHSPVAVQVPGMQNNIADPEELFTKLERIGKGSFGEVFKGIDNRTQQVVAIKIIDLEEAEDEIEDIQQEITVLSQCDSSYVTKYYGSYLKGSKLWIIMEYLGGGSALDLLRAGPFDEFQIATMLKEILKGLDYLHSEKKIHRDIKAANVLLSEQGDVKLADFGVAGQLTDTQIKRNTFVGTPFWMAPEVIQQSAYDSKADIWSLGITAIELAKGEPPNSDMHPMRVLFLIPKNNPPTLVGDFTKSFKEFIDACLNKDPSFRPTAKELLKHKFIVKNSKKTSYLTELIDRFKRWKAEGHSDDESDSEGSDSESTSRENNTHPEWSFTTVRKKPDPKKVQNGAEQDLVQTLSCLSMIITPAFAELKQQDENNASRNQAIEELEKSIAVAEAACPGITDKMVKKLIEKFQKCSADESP
Sequence of PIM2 (Q9P1W9 whole entry): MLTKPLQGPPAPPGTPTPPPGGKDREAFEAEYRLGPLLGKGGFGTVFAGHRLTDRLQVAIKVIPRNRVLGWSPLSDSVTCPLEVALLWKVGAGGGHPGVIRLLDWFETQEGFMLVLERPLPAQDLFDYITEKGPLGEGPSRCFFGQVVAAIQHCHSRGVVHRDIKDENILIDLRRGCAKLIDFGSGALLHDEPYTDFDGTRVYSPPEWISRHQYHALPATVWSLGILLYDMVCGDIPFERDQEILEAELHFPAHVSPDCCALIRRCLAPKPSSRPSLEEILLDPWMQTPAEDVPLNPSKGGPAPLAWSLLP

C#CCOc1ccc(Nc2ncc(Cl)c(Nc3ccccc3NC(=O)C=C)n2)c(OC)c1 [Compound 6]
inhibition at 1 µM [1, 16]: 0% | Inhibition at 1 µM (%) ([1]; DYRK4, 1 µM, ZLYTE, ATP Km app, listed as WEL028, 1 µM): -4% and 4% | inhibition at 1 µM [2, 16]: 1% | Inhibition at 1 µM (%) [2]: 3% | Inhibition at 1 µM (%) ([2]; listed as WEL028, 1 µM): 0% | inhibition at 1 µM [3, 16]: 12% | Inhibition at 1 µM (%) ([3]; DAPK1, 1 µM, Adapta, ATP Km app, listed as WEL028, 1 µM): 13% | inhibition at 1 µM ([3]; read-out: Inhibition at 1 µM (%), DAPK1, 1 µM, Adapta, ATP Km app): 12% | Inhibition (%) ([4]; 1 μM WEL028, 1 h preincubation): 4% | Inhibition at 1 µM (%) ([4]; EIF2AK2 (PKR), 1 µM, LanthaScreen Binding, listed as WEL028, 1 µM): 6% and 1% | inhibition at 1 µM [5, 16]: 23% | Inhibition at 1 µM (%) ([5]; FER, 1 µM, ZLYTE, ATP Km app, listed as WEL028, 1 µM): 27% | inhibition at 1 µM ([5]; read-out: Inhibition at 1 µM (%), FER, 1 µM, ZLYTE, ATP Km app): 20% | inhibition at 1 µM [6, 16]: 20% | Inhibition at 1 µM (%) ([6]; MINK1, 1 µM, ZLYTE, ATP Km app, listed as WEL028, 1 µM): 21% | inhibition at 1 µM ([6]; read-out: Inhibition at 1 µM (%), MINK1, 1 µM, ZLYTE, ATP Km app): 19% | inhibition at 1 µM [7, 16]: 19% | Inhibition at 1 µM (%) ([7]; MST4, 1 µM, ZLYTE, ATP Km app, listed as WEL028, 1 µM): 18% | inhibition at 1 µM ([7]; read-out: Inhibition at 1 µM (%), MST4, 1 µM, ZLYTE, ATP Km app): 21% | inhibition at 1 µM [8, 16]: 4% | Inhibition at 1 µM (%) ([8]; NTRK3 (TRKC), 1 µM, ZLYTE, ATP Km app, listed as WEL028, 1 µM): 0% and 8% | inhibition at 1 µM [9, 16]: -4% | Inhibition at 1 µM (%) ([9]; PIM2, 1 µM, ZLYTE, ATP Km app): -3% | IC50 [10]: 398 nM | Inhibition at 1 µM (%) ([10]; 1 µM, ZLYTE, ATP Km app, listed as WEL028, 1 µM): 79% | inhibition at 10 µM ([10]; 1 h, log[inhibitor] (M) -5.00, ZLYTE, ATP Km app): 90% | inhibition at 3.31 µM ([10]; 1 h, log[inhibitor] (M) -5.48, ZLYTE, ATP Km app): 88% | inhibition at 1.12 µM ([10]; 1 h, log[inhibitor] (M) -5.95, ZLYTE, ATP Km app): 78% | inhibition at 0.372 µM ([10]; 1 h, log[inhibitor] (M) -6.43, ZLYTE, ATP Km app): 46% | inhibition at 0.123 µM ([10]; 1 h, log[inhibitor] (M) -6.91, ZLYTE, ATP Km app): 26% | inhibition at 0.0138 µM ([10]; 1 h, log[inhibitor] (M) -7.86, ZLYTE, ATP Km app): 4% | inhibition at 0.00151 µM ([10]; 1 h, log[inhibitor] (M) -8.82, ZLYTE, ATP Km app): 4% | Apparent fold selectivity ([10]; IC50 on that kinase divided by IC50 on FES^S700C): 89 fold | inhibition at 1 µM ([10]; read-out: Inhibition at 1 µM (%), 1 µM, ZLYTE, ATP Km app): 77% | Inhibition (%) ([11]; 1 μM WEL028, 1 h preincubation): 5% | Inhibition at 1 µM (%) [11, 17]: 5% | inhibition at 1 µM [11, 18]: 4% | Inhibition at 1 µM (%) ([12]; 1 µM, ZLYTE, ATP Km app): 15% | inhibition at 1 µM [12, 16]: 5% | Inhibition at 1 µM (%) [13]: 2% | Inhibition at 1 µM (%) ([13]; listed as WEL028, 1 µM): 0% | inhibition at 1 µM [13, 16]: 1% | Inhibition at 1 µM (%) [14]: 3% | Inhibition at 1 µM (%) ([14]; listed as WEL028, 1 µM): 8% | inhibition at 1 µM [14, 16]: 6% | Inhibition at 1 µM (%) [15, 17]: 4% | inhibition at 1 µM [15, 16]: 5% | inhibition at 1 µM [15, 18]: 5%
